The text below walks through data of US11242337B2, “Compounds useful for treating gastrointestinal tract disorders” (Ardelyx, Inc., priority 2017, dated 2022).

For assay [1], the system named is human duodenum monolayer culture. The experiment in a line: Sustained inhibition of apical acid secretion in human organoid monolayer cell cultures (duodenum). Format: cell-based. To be noted: Homo sapiens. In short, it runs like this:
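Duodenum organoid cells were plated on Transwells, differentiated with EGF/noggin/A83-01 from day 3, and dosed apically on day 6 with compound at 1 μM final (DMSO vehicle control), in duplicate wells, at 37° C, 5% CO2. Apical media pH was measured by electrode on day 8.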

Assay [2] concerns the target T1, NHE3 (Homo sapiens, UniProt P48764).
T1 construct: expressed in transfected cells
T1 sequence (P48764 26-834): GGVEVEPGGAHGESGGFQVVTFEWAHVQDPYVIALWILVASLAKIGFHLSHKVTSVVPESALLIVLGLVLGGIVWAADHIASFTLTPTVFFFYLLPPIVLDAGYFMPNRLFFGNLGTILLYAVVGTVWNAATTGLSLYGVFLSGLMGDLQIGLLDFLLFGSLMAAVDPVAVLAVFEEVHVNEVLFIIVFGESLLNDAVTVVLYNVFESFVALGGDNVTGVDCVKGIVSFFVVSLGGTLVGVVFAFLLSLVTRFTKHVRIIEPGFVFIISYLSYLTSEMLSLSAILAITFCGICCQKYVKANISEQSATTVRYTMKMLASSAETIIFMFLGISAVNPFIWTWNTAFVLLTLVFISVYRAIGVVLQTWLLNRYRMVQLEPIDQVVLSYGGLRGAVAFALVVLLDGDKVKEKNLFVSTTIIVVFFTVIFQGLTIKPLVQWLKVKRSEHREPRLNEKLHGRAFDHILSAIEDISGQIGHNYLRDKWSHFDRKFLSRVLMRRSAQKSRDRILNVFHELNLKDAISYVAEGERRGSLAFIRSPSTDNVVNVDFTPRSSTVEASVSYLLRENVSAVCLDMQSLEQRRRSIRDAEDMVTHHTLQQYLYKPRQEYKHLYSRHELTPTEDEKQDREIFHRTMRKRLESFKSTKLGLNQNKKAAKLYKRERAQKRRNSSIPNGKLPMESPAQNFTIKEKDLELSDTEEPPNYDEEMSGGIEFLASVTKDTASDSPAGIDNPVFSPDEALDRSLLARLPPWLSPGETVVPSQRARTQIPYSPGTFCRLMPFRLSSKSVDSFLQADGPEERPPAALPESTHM
T1 sequence (Q99653 2-195 partner limits assumed): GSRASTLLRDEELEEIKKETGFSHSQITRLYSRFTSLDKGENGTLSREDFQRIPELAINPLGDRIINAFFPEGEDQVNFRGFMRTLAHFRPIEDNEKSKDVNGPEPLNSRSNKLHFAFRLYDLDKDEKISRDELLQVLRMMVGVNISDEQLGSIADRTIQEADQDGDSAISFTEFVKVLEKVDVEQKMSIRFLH
The experiment in a line: Cell-based assay of NHE-3 activity (pre-incubation inhibition), human. To be noted: human Preincubation; for pIC50: 0-30 μM test compound. In short, it runs like this: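 Activity read as initial rate of BCECF fluorescence ratio change per minute (ex 439/505, em 538 nm) following NH4Cl prepulse acid loading. Compound (0–30 μM) present during 10 min Na+-free acidification at room temperature; cells were PS120 fibroblasts stably co-expressing human NHE3 and NHERF2.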

For `O=C(NCCCCNC(=O)NCCOCCN1CC[C@H](NS(=O)(=O)c2ccc(O[C@H]3c4cc(Cl)cc(Cl)c4C[C@@H]3N3CCNCC3)c(F)c2)C1)NCCOCCN1CC[C@H](NS(=O)(=O)c2ccc(O[C@H]3c4cc(Cl)cc(Cl)c4C[C@@H]3N3CCNCC3)c(F)c2)C1` [Example 106, 4-([(1S,2S)-4,6-Dichloro-2-(piperazin-1-yl)-2,3-dihydro-1H-inden-1-yl]oxy)-N—[(S)-1-(20-[(S)-3-([4-([(1S,2S)-4,6-dichloro-2-(piperazin-1-yl)-2,3-dihydro-1H-inden-1-yl]oxy)-3-fluorophenyl]sulfonamido)pyrrolidin-1-yl]-7,14-dioxo-3,18-dioxa-6,8,13,15-tetraazaicosyl)pyrrolidin-3-yl]-3-fluorobenzenesulfonamide; tetra(trifluoroacetate)], the inhibition (commonly the relative decrease from the control value, in per cent) at 1 µM in assay [1] is above 70%. The “% inhibition” value in assay [2] is listed as “C (>70%)”.

With `N#Cc1cc(Cl)cc2c1C[C@H](N1CCNCC1)[C@H]2Oc1ccc(S(=O)(=O)N[C@H]2CCN(CCOCCNC(=O)NCCCCNC(=O)NCCOCCN3CC[C@H](NS(=O)(=O)c4ccc(O[C@H]5c6cc(Cl)cc(C#N)c6C[C@@H]5N5CCNCC5)cc4)C3)C2)cc1` [Example 107, 4-([(1S,2S)-6-Chloro-4-cyano-2-(piperazin-1-yl)-2,3-dihydro-1H-inden-1-yl]oxy)-N—[(S)-1-(20-[(S)-3-([4-([(1S,2S)-6-chloro-4-cyano-2-(piperazin-1-yl)-2,3-dihydro-1H-inden-1-yl]oxy)phenyl]sulfonamido)pyrrolidin-1-yl]-7,14-dioxo-3,18-dioxa-6,8,13,15-tetraazaicosyl)pyrrolidin-3-yl]benzenesulfonamide; tetra(trifluoroacetate)], the inhibition at 1 µM in assay [1] was above 70%. Besides, in assay [2], the “% inhibition” value is given as “C (>70%)” and the pIC50 result is reported as “C (NHE3 pIC50 > 7)”.

`N#Cc1cc(Cl)cc2c1C[C@H](N1CCNCC1)[C@H]2Oc1ccc(S(=O)(=O)N[C@@H]2CCN(CCOCCNC(=O)NCCCCNC(=O)NCCOCCN3CC[C@@H](NS(=O)(=O)c4ccc(O[C@H]5c6cc(Cl)cc(C#N)c6C[C@@H]5N5CCNCC5)c(F)c4)C3)C2)cc1F` [Example 109, 4-([(1S,2S)-6-Chloro-4-cyano-2-(piperazin-1-yl)-2,3-dihydro-1H-inden-1-yl]oxy)-N—[(R)-1-(20-[(R)-3-[(4-([(1S,2S)-6-chloro-4-cyano-2-(piperazin-1-yl)-2,3-dihydro-1H-inden-1-yl]oxy)-3-fluorophenyl)sulfonamide)pyrrolidin-1-yl]-7,14-dioxo-3,18-dioxa-6,8,13,15-tetraazaicosyl)pyrrolidin-3-yl]-3-fluorobenzenesulfonamide; tetra(trifluoroacetate)]: the inhibition at 1 µM in assay [1] is above 70%. In assay [2], the “% inhibition” value is reported as “C (>70%)” and the pIC50 result was “C (NHE3 pIC50 > 7)”.

In assay [1], `N#Cc1cc(Cl)cc2c1C[C@H](N1CCNCC1)[C@H]2Oc1ccc(S(=O)(=O)N[C@H]2CCN(CCOCCNC(=O)NCCCCNC(=O)NCCOCCN3CC[C@H](NS(=O)(=O)c4ccc(O[C@H]5c6cc(Cl)cc(C#N)c6C[C@@H]5N5CCNCC5)c(F)c4)C3)C2)cc1F` [Example 110, 4-([(1S,2S)-6-Chloro-4-cyano-2-(piperazin-1-yl)-2,3-dihydro-1H-inden-1-yl]oxy)-N—[(S)-1-(20-[(S)-3-[(4-([(1S,2S)-6-chloro-4-cyano-2-(piperazin-1-yl)-2,3-dihydro-1H-inden-1-yl]oxy)-3-fluorophenyl)sulfonamide)pyrrolidin-1-yl]-7,14-dioxo-3,18-dioxa-6,8,13,15-tetraazaicosyl)pyrrolidin-3-yl]-3-fluorobenzenesulfonamide; tetra(trifluoroacetate)] registered an inhibition at 1 µM above 70%. Moreover, in assay [2], the “% inhibition” value is recorded as “C (>70%)” and the pIC50 entry was “C (NHE3 pIC50 > 7)”.

For the molecule `N#Cc1cc(Cl)cc2c1C[C@H](N1CCNCC1)[C@H]2Oc1ccc(S(=O)(=O)NC2CCN(C(=O)CCCNC(=O)NCCCCNC(=O)NCCCC(=O)N3CCC(NS(=O)(=O)c4ccc(O[C@H]5c6cc(Cl)cc(C#N)c6C[C@@H]5N5CCNCC5)cc4)CC3)CC2)cc1` [Example 115], in assay [1], the inhibition at 1 µM was above 70%. In addition, in assay [2], the “% inhibition” value was “C (>70%)” and the pIC50 entry is given as “C (NHE3 pIC50 > 7)”.
